Like-named read-outs stand apart in the source and are kept apart here.
Legend:
[1] = biological target: T1, Cav1.3 L-type Ca channels (Rattus norvegicus, UniProt P27732); assay: FLIPR Fluo-8 calcium assay, Cav1.3 channel inhibition in HEK293 cells; format: cell-based; conditions: for Selectivity: ratio of IC50 Cav1.2 to Cav1.3
T1 construct: expressed in transfected cells; host or cells: HEK293

[2] = biological target: Cav1.2 L-type Ca channels (Oryctolagus cuniculus, UniProt P15381); assay: FLIPR Fluo-8 calcium assay, Cav1.2 channel inhibition in HEK293 cells
[3] = Table 4, 12 concentration points (0.1 nM~100 μM) in duplicate, read-out: IC50 (μM) Cav1.3
[4] = third library, FLIPR, HEK293, value (±SD), read-out: IC50 (μM) Cav1.3
[5] = IC50 (μM) Cav1.2, Table 4, 12 concentration points (0.1 nM~100 μM) in duplicate
[6] = IC50 (μM) Cav1.2, third library, FLIPR, HEK293, value (±SD)
[7] = IC50 (μM) Cav1.3, third library, FLIPR, HEK293, value (±SD)
[8] = IC50 (μM) CaV1.3, first library, FLIPR, HEK293, value (±SD)
[9] = IC50 (μM) CaV1.2, first library, FLIPR, HEK293, value (±SD)
[10] = first library, FLIPR, HEK293, value (±SD), read-out: IC50 (μM) CaV1.3

T1 sequence (P27732 whole entry): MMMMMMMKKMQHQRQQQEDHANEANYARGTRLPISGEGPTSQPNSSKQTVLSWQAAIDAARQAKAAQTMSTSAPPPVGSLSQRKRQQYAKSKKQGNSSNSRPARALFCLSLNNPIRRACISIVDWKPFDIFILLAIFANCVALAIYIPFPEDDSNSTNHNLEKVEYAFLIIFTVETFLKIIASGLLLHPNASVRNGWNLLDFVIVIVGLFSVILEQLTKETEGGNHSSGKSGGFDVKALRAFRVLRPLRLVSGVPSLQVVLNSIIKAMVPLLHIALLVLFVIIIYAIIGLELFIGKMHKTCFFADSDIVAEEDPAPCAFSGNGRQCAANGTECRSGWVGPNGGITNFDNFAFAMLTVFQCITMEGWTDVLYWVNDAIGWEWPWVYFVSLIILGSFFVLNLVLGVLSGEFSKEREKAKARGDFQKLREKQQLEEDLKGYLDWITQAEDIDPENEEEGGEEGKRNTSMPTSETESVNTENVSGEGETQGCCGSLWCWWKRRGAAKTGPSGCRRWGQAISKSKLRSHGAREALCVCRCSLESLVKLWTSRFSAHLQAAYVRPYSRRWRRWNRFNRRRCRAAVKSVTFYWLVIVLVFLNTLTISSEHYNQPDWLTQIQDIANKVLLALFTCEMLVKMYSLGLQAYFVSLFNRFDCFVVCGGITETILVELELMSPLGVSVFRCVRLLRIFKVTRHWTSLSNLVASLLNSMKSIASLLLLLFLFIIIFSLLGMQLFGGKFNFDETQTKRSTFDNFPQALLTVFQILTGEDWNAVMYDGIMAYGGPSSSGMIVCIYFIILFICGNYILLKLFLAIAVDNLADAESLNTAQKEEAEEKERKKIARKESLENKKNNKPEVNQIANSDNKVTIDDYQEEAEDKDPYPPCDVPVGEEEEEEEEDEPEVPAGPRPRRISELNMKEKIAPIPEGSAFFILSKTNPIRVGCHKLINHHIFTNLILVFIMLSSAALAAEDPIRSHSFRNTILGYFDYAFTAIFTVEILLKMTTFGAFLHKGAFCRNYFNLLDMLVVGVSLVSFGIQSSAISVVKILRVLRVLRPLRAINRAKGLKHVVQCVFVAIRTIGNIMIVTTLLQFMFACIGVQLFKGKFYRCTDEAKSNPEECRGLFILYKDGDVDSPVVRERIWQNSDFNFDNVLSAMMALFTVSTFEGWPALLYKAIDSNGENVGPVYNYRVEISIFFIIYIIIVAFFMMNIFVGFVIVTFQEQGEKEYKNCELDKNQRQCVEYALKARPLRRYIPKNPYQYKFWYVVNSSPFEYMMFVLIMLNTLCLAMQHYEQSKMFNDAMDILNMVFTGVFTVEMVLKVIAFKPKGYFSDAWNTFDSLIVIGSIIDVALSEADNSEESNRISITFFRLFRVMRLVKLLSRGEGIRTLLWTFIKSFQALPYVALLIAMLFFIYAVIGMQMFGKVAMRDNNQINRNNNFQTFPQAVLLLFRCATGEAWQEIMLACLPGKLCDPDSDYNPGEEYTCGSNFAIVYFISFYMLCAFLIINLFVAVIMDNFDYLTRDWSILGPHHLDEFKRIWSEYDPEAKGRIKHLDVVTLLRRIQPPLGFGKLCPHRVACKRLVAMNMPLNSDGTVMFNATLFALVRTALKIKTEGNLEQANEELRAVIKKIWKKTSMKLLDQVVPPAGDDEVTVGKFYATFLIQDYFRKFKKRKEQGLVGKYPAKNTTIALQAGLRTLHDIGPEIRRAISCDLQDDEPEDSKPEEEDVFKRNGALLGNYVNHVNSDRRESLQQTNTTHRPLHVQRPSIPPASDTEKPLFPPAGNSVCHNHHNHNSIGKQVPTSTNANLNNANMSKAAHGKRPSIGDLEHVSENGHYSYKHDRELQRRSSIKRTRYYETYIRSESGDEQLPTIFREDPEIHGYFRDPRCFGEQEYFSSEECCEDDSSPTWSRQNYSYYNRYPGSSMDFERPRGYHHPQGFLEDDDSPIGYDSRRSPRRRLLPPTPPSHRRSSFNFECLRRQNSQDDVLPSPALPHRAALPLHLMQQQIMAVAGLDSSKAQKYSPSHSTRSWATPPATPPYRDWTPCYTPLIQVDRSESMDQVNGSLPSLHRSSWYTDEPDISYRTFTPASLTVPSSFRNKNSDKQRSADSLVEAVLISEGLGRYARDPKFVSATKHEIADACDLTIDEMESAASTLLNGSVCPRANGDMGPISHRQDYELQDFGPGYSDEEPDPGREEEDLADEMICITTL
T1 sequence (P54284 whole entry partner): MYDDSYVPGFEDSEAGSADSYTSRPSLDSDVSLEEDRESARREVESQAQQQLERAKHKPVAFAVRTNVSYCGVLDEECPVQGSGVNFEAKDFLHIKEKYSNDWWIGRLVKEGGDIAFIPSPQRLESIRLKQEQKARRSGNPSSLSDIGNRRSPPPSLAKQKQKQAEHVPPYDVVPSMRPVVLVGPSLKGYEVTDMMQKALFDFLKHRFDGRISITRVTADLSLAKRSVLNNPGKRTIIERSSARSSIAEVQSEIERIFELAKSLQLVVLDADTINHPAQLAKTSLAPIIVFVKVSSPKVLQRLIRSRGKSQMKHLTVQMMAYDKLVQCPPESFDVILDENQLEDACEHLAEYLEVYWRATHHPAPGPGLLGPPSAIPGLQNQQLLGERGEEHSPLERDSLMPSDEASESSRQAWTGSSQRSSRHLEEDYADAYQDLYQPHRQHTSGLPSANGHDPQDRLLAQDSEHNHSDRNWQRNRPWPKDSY
T1 sequence (P54289 25-956 partner limits assumed): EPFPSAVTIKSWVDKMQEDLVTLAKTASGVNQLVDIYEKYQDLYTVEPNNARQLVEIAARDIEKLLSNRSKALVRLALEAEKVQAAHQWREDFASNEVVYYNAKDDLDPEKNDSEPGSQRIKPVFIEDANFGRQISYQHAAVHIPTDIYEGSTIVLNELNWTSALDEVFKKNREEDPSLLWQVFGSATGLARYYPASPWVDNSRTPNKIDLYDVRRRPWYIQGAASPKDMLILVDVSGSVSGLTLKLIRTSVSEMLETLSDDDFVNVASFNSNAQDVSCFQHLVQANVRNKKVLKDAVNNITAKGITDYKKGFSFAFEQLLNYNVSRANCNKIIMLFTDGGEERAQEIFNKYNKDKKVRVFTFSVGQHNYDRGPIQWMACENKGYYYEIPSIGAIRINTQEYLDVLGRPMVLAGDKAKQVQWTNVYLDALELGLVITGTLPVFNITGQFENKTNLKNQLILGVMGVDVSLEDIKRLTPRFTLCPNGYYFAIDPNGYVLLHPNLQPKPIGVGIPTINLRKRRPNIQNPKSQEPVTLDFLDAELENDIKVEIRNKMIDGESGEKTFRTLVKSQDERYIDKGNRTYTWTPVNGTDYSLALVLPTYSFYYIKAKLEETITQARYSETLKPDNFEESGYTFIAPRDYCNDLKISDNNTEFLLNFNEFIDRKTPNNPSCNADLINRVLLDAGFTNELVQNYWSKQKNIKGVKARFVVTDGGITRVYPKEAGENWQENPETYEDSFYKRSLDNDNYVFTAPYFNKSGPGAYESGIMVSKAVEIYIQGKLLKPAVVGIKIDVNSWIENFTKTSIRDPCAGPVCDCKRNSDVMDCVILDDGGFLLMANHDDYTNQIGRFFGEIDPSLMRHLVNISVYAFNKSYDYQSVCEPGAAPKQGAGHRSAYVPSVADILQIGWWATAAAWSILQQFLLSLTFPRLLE
T1 sequence (P54289 957-1103 partner limits assumed): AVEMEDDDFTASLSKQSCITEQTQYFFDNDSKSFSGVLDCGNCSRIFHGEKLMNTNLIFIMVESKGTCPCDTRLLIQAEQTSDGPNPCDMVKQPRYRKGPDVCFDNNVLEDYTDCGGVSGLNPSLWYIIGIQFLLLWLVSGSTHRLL

Row | SMILES | IC50 [1, 8] [µM] | Selectivity ([1]; first library) | IC50 [2, 9] [µM] | further results
1 | O=C1CC(=O)N([C@@H]2C[C@@H]3CC[C@H]2C3)C(=O)N1CCc1cccc(Cl)c1 (racemic) [Compound 9, N-(3-chlorophenethyl)-N′-(+)-endo-norbornyl-pyrimidine-2,4,6-(1H,3H,5H)-trione] | – | – | – | IC50 [1, 3]: 0.8 µM; IC50 ([1]; read-out: IC50 with Cav1.3): 0.8 µM; IC50 [1, 4]: 0.8 µM; IC50 [2, 5]: 20.1 µM; IC50 [2, 6]: 20.1 µM
2 | O=C1CC(=O)N(C2CC3CCC2C3)C(=O)N1CCc1ccc(Cl)cc1 (racemic) [Compound 10, N-(4-chlorophenethyl)-N′-(+)-endo-norbornyl-pyrimidine-2,4,6-(1H,3H,5H)-trione] | – | – | – | IC50 [1, 3]: 0.6 µM; IC50 ([1]; read-out: IC50 with Cav1.3): 0.6 µM; IC50 [1, 4]: 0.6 µM; IC50 [2, 5]: 13.5 µM; IC50 [2, 6]: 13.5 µM
3 | CC(Cc1ccccc1)N1C(=O)CC(=O)N(C2CCCC2)C1=O (racemic) [Compound 95] | – | – | – | IC50 [1, 7]: 0.7 µM; Selectivity ([1]; third library): 23.0; IC50 [2, 6]: 16 µM
4 | CC(CN1C(=O)CC(=O)N(C2CCCC2)C1=O)c1ccccc1 (racemic) [Compound 96] | – | – | – | IC50 [1, 7]: 1 µM; Selectivity ([1]; third library): 17.6; IC50 [2, 6]: 16.9 µM
5 | O=C1CC(=O)N([C@H]2C[C@@H]3CC[C@H]2C3)C(=O)N1CCc1cccc(Cl)c1 (racemic) [Compound 112] | – | – | – | IC50 [1, 4]: 1.9 µM; IC50 [2, 6]: 6.3 µM
6 | O=C1CC(=O)N(CCc2ccc(Cl)cc2)C(=O)N1CCc1ccc(Cl)cc1 [Compound 11] | 1.8 | 1.2 | 2.1 | –
7 | O=C1CC(=O)N(CCc2cccc(Cl)c2)C(=O)N1CCc1ccc(Cl)cc1 [Compound 12] | 1.9 | 2.3 | 4.4 | –
8 | O=C1CC(=O)N(CCc2ccc(Cl)cc2Cl)C(=O)N1CCc1ccc(Cl)cc1 [Compound 13] | 1.8 | 1.5 | 2.8 | –
9 | O=C1CC(=O)N(CCc2ccc(Cl)c(Cl)c2)C(=O)N1CCc1ccc(Cl)cc1 [Compound 14] | 1.9 | 0.7 | 1.3 | –
10 | O=C1CC(=O)N(CCc2c(Cl)cccc2Cl)C(=O)N1CCc1ccc(Cl)cc1 [Compound 15] | 2.7 | 0.7 | 1.9 | –
11 | O=C1CC(=O)N(CCc2ccc(Br)cc2)C(=O)N1CCc1ccc(Cl)cc1 [Compound 16] | 1.6 | 1.3 | 2.1 | –
12 | Cc1ccc(CCN2C(=O)CC(=O)N(CCc3ccc(Cl)cc3)C2=O)cc1 [Compound 17] | 1.1 | 6.7 | 7.1 | –
13 | O=C1CC(=O)N(CCc2ccc(Cl)cc2)C(=O)N1CCc1ccc(F)cc1 [Compound 18] | 1.1 | 3.1 | 3.3 | –
14 | O=C1CC(=O)N(CCc2cccc(F)c2)C(=O)N1CCc1ccc(Cl)cc1 [Compound 19] | 1.9 | 1.5 | 2.8 | –
15 | O=C1CC(=O)N(CCc2cccc(C(F)(F)F)c2)C(=O)N1CCc1ccc(Cl)cc1 [Compound 20] | 0.4 | 6.2 | 2.8 | –
16 | CC(CN1C(=O)CC(=O)N(CCc2ccc(Cl)cc2)C1=O)c1ccccc1 (stereo not drawn) [Compound 21] | 1.3 | 5.0 | 6.2 | –
17 | O=C1CC(=O)N(Cc2cccc([N+](=O)[O-])c2)C(=O)N1CCc1ccc(Cl)cc1 [Compound 22] | 21.2 | 0.4 | 9.5 | –
18 | O=C1CC(=O)N(CCc2ccc([N+](=O)[O-])cc2)C(=O)N1CCc1ccc(Cl)cc1 [Compound 23] | – | 0.8 | – | IC50 [1, 10]: 3.4 µM; IC50 [2]: 2.7 µM
19 | O=C1CC(=O)N(CCc2cccc([N+](=O)[O-])c2)C(=O)N1CCc1ccc(Cl)cc1 [Compound 24] | 2.7 | 1.0 | 2.6 | –
20 | O=C1CC(=O)N(Cc2ccc(Cl)cc2)C(=O)N1CCc1ccc(Cl)cc1 [Compound 25] | 2.1 | 0.9 | 1.9 | –
21 | O=C1CC(=O)N(CCc2ccc(Cl)cc2)C(=O)N1CCCCc1ccccc1 [Compound 26] | 0.9 | 0.9 | 0.8 | –
22 | O=C1CC(=O)N(CCc2ccc(Cl)cc2)C(=O)N1CCCc1ccccc1 [Compound 27] | 1.1 | 1.9 | 2.1 | –
23 | CCCCCCCCN1C(=O)CC(=O)N(CCc2ccc(Cl)cc2)C1=O [Compound 28] | 1.5 | 1.9 | 2.8 | –
24 | O=C1CC(=O)N(C2CCCC2)C(=O)N1CCc1ccc(Cl)cc1 [Compound 29] | 1.4 | 16.4 | 22.4 | –
25 | O=C1CC(=O)N(C2CCCc3ccccc32)C(=O)N1CCc1ccc(Cl)cc1 (stereo not drawn) [Compound 30] | 5.6 | 2.3 | 12.8 | –
26 | O=C1CC(=O)N(C2Cc3ccccc3C2)C(=O)N1CCc1ccc(Cl)cc1 [Compound 31] | 1.3 | 2.2 | 3 | –

Row | SMILES | IC50 [1, 8] [µM] | Selectivity ([1]; first library) | IC50 [2, 9] [µM] | further results
27 | O=C1CC(=O)N(C2CCc3ccccc32)C(=O)N1CCc1ccc(Cl)cc1 (stereo not drawn) [Compound 32] | 8.4 | 1.7 | 14.5 | –
28 | O=C1CC(=O)N(CCc2ccc3ccccc3c2)C(=O)N1CCc1ccc(Cl)cc1 [Compound 33] | 1.1 | 1.2 | – | IC50 [2]: 1.4 µM
29 | COC(=O)CN1C(=O)CC(=O)N(CCc2ccc(Cl)cc2)C1=O [Compound 34] | 108 | – | – | –
30 | COC(=O)[C@H](C)N1C(=O)CC(=O)N(CCc2ccc(Cl)cc2)C1=O [Compound 35] | 77.7 | 1.1 | 88.2 | –
31 | COC(=O)[C@H](CC(C)C)N1C(=O)CC(=O)N(CCc2ccc(Cl)cc2)C1=O [Compound 36] | 20.6 | 0.8 | 17.1 | –
32 | C=CCOC(=O)[C@H](Cc1ccccc1)N1C(=O)CC(=O)N(CCc2ccc(Cl)cc2)C1=O [Compound 37] | 9.4 | 1.0 | 9.1 | –
33 | O=C1CC(=O)N(CCc2cccc(Cl)c2)C(=O)N1CCCCc1ccccc1 [Compound 38] | 1.3 | 4.9 | 6.2 | –
34 | O=C1CC(=O)N(CCc2ccc(Cl)c(Cl)c2)C(=O)N1CCCCc1ccccc1 [Compound 39] | 1.3 | 2.3 | 3.1 | –
35 | O=C1CC(=O)N(CCc2ccc(Br)cc2)C(=O)N1CCCCc1ccccc1 [Compound 40] | 1.1 | 1.9 | 2 | –
36 | Cc1ccc(CCN2C(=O)CC(=O)N(CCCCc3ccccc3)C2=O)cc1 [Compound 41] | 1.1 | 14.1 | 15.5 | –
37 | O=C1CC(=O)N(CCc2cccc(F)c2)C(=O)N1CCCCc1ccccc1 [Compound 42] | 1.6 | 3.3 | 5.3 | –
38 | O=C1CC(=O)N(CCc2cccc(C(F)(F)F)c2)C(=O)N1CCCCc1ccccc1 [Compound 43] | 0.5 | 2.3 | 1.1 | –
39 | CC(CN1C(=O)CC(=O)N(CCCCc2ccccc2)C1=O)c1ccccc1 (stereo not drawn) [Compound 44] | 2.1 | 7.7 | 15.8 | –
40 | O=C1CC(=O)N(Cc2ccc([N+](=O)[O-])cc2)C(=O)N1CCCCc1ccccc1 [Compound 45] | 7.7 | 0.6 | 4.4 | –
41 | O=C1CC(=O)N(CCc2ccc([N+](=O)[O-])cc2)C(=O)N1CCCCc1ccccc1 [Compound 46] | 3.5 | 1.2 | 4.1 | –
42 | O=C1CC(=O)N(CCc2cccc([N+](=O)[O-])c2)C(=O)N1CCCCc1ccccc1 [Compound 47] | 3 | 1.0 | 3 | –
43 | O=C1CC(=O)N(Cc2ccc(Cl)cc2)C(=O)N1CCCCc1ccccc1 [Compound 48] | 2.1 | 3.7 | 7.7 | –
44 | O=C1CC(=O)N(CCCc2ccccc2)C(=O)N1CCCCc1ccccc1 [Compound 49] | – | 2.0 | 2.6 | IC50 [1, 10]: 1.3 µM
45 | O=C1CC(=O)N(C2CCCc3ccccc32)C(=O)N1CCCCc1ccccc1 (stereo not drawn) [Compound 50] | 36.5 | 0.9 | 34.1 | –
46 | O=C1CC(=O)N(C2Cc3ccccc3C2)C(=O)N1CCCCc1ccccc1 [Compound 51] | – | 1.5 | 4.9 | IC50 [1, 10]: 3.3 µM
47 | O=C1CC(=O)N(C2CCc3ccccc32)C(=O)N1CCCCc1ccccc1 (stereo not drawn) [Compound 52] | 5.3 | 1.1 | 5.7 | –
48 | O=C1CC(=O)N(CCc2ccc3ccccc3c2)C(=O)N1CCCCc1ccccc1 [Compound 53] | 1.9 | 1.3 | 2.5 | –
49 | O=C1CC(=O)N(CCc2ccc(Cl)c(Cl)c2)C(=O)N1CCCc1ccccc1 [Compound 54] | 4.3 | 1.6 | 6.9 | –
50 | O=C1CC(=O)N(CCc2ccc(F)cc2)C(=O)N1CCCc1ccccc1 [Compound 55] | – | 1.7 | 2.2 | IC50 [1, 10]: 1.3 µM
51 | CN1C(=O)CC(=O)N(Cc2cccc([N+](=O)[O-])c2)C1=O [Compound 69] | – | – | – | IC50 [2]: 167 µM
52 | O=C1CC(=O)N(CCc2cccc([N+](=O)[O-])c2)C(=O)N1CCc1cccc([N+](=O)[O-])c1 [Compound 70] | – | – | – | IC50 [2]: 173 µM
